Measurements: PubChem BioAssay (NCI)
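Exposure lasted 48 hours, with cells grown in 96-well plates and compounds tested at five concentrations. TGI: total growth inhibition.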

How the values were obtained:
Assay in all cases: DTP human tumour cell line panel, 48 h
HS 578T breast = system: HS 578T breast
SNB-19 CNS = system: SNB-19 CNS
SW-620 colon = system: SW-620 colon
U251 CNS = system: U251 CNS
OVCAR-4 ovarian = system: OVCAR-4 ovarian
MDA-MB-231 breast = system: MDA-MB-231 breast
SK-MEL-2 melanoma = system: SK-MEL-2 melanoma
MDA-MB-435 = system: MDA-MB-435
NCI-H522 lung = system: NCI-H522 lung
PC-3 prostate = system: PC-3 prostate
SN12C renal = system: SN12C renal
CAKI-1 renal = system: CAKI-1 renal
SNB-75 CNS = system: SNB-75 CNS
OVCAR-5 ovarian = system: OVCAR-5 ovarian
ACHN renal = system: ACHN renal
SF-539 CNS = system: SF-539 CNS
NCI-H460 lung = system: NCI-H460 lung
MCF7 breast = system: MCF7 breast
A549 NSCLC = system: A549 NSCLC
BT-549 breast = system: BT-549 breast
HCC-2998 colon = system: HCC-2998 colon
T-47D breast = system: T-47D breast
CCRF-CEM leukemia = system: CCRF-CEM leukemia
HT29 colon = system: HT29 colon
K-562 leukemia = system: K-562 leukemia
NCI-H226 lung = system: NCI-H226 lung
DU-145 prostate = system: DU-145 prostate
SF-268 CNS = system: SF-268 CNS
SR leukemia = system: SR leukemia
UACC-62 melanoma = system: UACC-62 melanoma
EKVX NSCLC = system: EKVX NSCLC
M14 melanoma = system: M14 melanoma
TK-10 renal = system: TK-10 renal
SF-295 CNS = system: SF-295 CNS
SK-OV-3 ovarian = system: SK-OV-3 ovarian
UO-31 renal = system: UO-31 renal
MDA-N = system: MDA-N
RPMI-8226 leukemia = system: RPMI-8226 leukemia
786-0 renal = system: 786-0 renal
OVCAR-3 ovarian = system: OVCAR-3 ovarian
SK-MEL-5 melanoma = system: SK-MEL-5 melanoma
HOP-62 NSCLC = system: HOP-62 NSCLC
SK-MEL-28 melanoma = system: SK-MEL-28 melanoma
MOLT-4 leukemia = system: MOLT-4 leukemia
IGROV1 ovarian = system: IGROV1 ovarian
RXF 393 renal = system: RXF 393 renal
HCT-15 colon = system: HCT-15 colon
UACC-257 melanoma = system: UACC-257 melanoma
KM12 colon = system: KM12 colon
NCI-H23 lung = system: NCI-H23 lung
COLO 205 colon = system: COLO 205 colon
HOP-92 NSCLC = system: HOP-92 NSCLC
OVCAR-8 ovarian = system: OVCAR-8 ovarian
HCT-116 colon = system: HCT-116 colon
A498 renal = system: A498 renal
NCI/ADR-RES ovarian = system: NCI/ADR-RES ovarian

Structure (SMILES): O=C1/C(=C/c2ccc(Cl)cc2)Sc2scc(-c3cccc([N+](=O)[O-])c3)[n+]21
- TGI (HS 578T breast): 43.6 µM
- TGI (SNB-19 CNS): 38.9 µM
- TGI (SW-620 colon): 3.82 µM
- TGI (U251 CNS): 23.6 µM
- TGI (OVCAR-4 ovarian): 28.1 µM
- TGI (MDA-MB-231 breast): > 32.1 µM
- TGI (SK-MEL-2 melanoma): 29.1 µM
- TGI (MDA-MB-435): 13.2 µM
- TGI (NCI-H522 lung): 2.01 µM
- TGI (PC-3 prostate): 20.6 µM
- TGI (SN12C renal): 11.9 µM
- TGI (CAKI-1 renal): 6.85 µM
- TGI (SNB-75 CNS): 5.49 µM
- TGI (OVCAR-5 ovarian): 51.3 µM
- TGI (ACHN renal): 6.27 µM
- TGI (SF-539 CNS): 8.11 µM
- TGI (NCI-H460 lung): 20.3 µM
- TGI (MCF7 breast): > 40.7 µM
- TGI (A549 NSCLC): > 68.5 µM
- TGI (BT-549 breast): 6.37 µM
- TGI (HCC-2998 colon): 10.5 µM
- TGI (T-47D breast): > 100 µM
- TGI (CCRF-CEM leukemia): 1.18 µM
- TGI (HT29 colon): > 45 µM
- TGI (K-562 leukemia): 2.24 µM
- TGI (NCI-H226 lung): > 100 µM
- TGI (DU-145 prostate): > 33.3 µM
- TGI (SF-268 CNS): 14.6 µM
- TGI (SR leukemia): 2.42 µM
- TGI (UACC-62 melanoma): 13.5 µM
- TGI (EKVX NSCLC): 13.9 µM
- TGI (M14 melanoma): > 35 µM
- TGI (TK-10 renal): 5.07 µM
- TGI (SF-295 CNS): 17.9 µM
- TGI (SK-OV-3 ovarian): 23.6 µM
- TGI (UO-31 renal): 15.5 µM
- TGI (MDA-N): 13.8 µM
- TGI (RPMI-8226 leukemia): 3.99 µM
- TGI (786-0 renal): 6.49 µM
- TGI (OVCAR-3 ovarian): 36 µM
- TGI (SK-MEL-5 melanoma): 12.9 µM
- TGI (HOP-62 NSCLC): > 69.7 µM
- TGI (SK-MEL-28 melanoma): 10.2 µM
- TGI (MOLT-4 leukemia): 3.9 µM
- TGI (IGROV1 ovarian): 7.48 µM
- TGI (RXF 393 renal): 7.97 µM
- TGI (HCT-15 colon): 4.66 µM
- TGI (UACC-257 melanoma): 10.9 µM
- TGI (KM12 colon): 13.1 µM
- TGI (NCI-H23 lung): 12.9 µM
- TGI (COLO 205 colon): 4.48 µM
- TGI (HOP-92 NSCLC): 5.39 µM

Structure (SMILES): Cc1cc(C#N)c(Nc2ccccc2[N+](=O)[O-])s1
- TGI (SNB-19 CNS): > 100 µM
- TGI (SW-620 colon): > 100 µM
- TGI (U251 CNS): 57.6 µM
- TGI (OVCAR-4 ovarian): > 100 µM
- TGI (OVCAR-8 ovarian): > 100 µM
- TGI (MDA-MB-231 breast): 92.4 µM
- TGI (MDA-MB-435): 47.5 µM
- TGI (NCI-H522 lung): 57.6 µM
- TGI (PC-3 prostate): 73.9 µM
- TGI (SN12C renal): 67.7 µM
- TGI (CAKI-1 renal): > 100 µM
- TGI (SNB-75 CNS): > 100 µM
- TGI (OVCAR-5 ovarian): 62.9 µM
- TGI (ACHN renal): > 100 µM
- TGI (SF-539 CNS): > 100 µM
- TGI (NCI-H460 lung): > 100 µM
- TGI (MCF7 breast): > 100 µM
- TGI (A549 NSCLC): > 100 µM
- TGI (BT-549 breast): 60.5 µM
- TGI (HCC-2998 colon): 91.1 µM
- TGI (T-47D breast): > 100 µM
- TGI (CCRF-CEM leukemia): > 100 µM
- TGI (K-562 leukemia): > 100 µM
- TGI (NCI-H226 lung): > 100 µM
- TGI (DU-145 prostate): 78.8 µM
- TGI (SF-268 CNS): > 100 µM
- TGI (SR leukemia): > 100 µM
- TGI (UACC-62 melanoma): > 100 µM
- TGI (EKVX NSCLC): 97.2 µM
- TGI (M14 melanoma): > 100 µM
- TGI (SF-295 CNS): > 100 µM
- TGI (SK-OV-3 ovarian): > 100 µM
- TGI (HCT-116 colon): > 100 µM
- TGI (UO-31 renal): > 100 µM
- TGI (MDA-N): 30.9 µM
- TGI (RPMI-8226 leukemia): > 100 µM
- TGI (786-0 renal): > 100 µM
- TGI (OVCAR-3 ovarian): 71.5 µM
- TGI (A498 renal): > 100 µM
- TGI (HOP-62 NSCLC): 90.9 µM
- TGI (SK-MEL-28 melanoma): > 100 µM
- TGI (MOLT-4 leukemia): > 100 µM
- TGI (IGROV1 ovarian): > 100 µM
- TGI (RXF 393 renal): 47 µM
- TGI (HCT-15 colon): > 100 µM
- TGI (UACC-257 melanoma): > 100 µM
- TGI (KM12 colon): > 100 µM
- TGI (NCI-H23 lung): > 100 µM
- TGI (COLO 205 colon): > 100 µM
- TGI (HOP-92 NSCLC): > 100 µM
- TGI (NCI/ADR-RES ovarian): 53 µM
